We go through ten compounds from ChEMBL document CHEMBL1201862, “PubChem BioAssay data set” (2004).

Among the test systems are 786-0; A549; ACHN; BT-549; DU-145; HCT-116; HCT-15; HT-29; Hs-578T; K562; LOX IMVI; MCF7; NCI-H522; NCI/ADR-RES; RPMI-8226; SK-MEL-28; SNB-19; SR; SW-620; U-251.
Assay in all cases: NCI-60 cell line screen, 48 h

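Values below derive from 48-hour exposures of cells grown in 96-well plates, with endpoints linearly interpolated between the two concentrations bracketing the appropriate inhibition level. Here, GI50 denotes the concentration required for 50% inhibition of growth.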 The source made the active and inactive calls. No stated cut-off is given here; in the data, active = GI50 up to about 1.1 µM and inactive = higher. Bounds are passed on as bounds.

As for `O=C1OC(c2ccccc2)=N/C1=C\c1ccc(Cl)cc1`, the GI50 in the test on 786-0, with A549, in the test with ACHN, with BT-549, in the test with DU-145 and with HCT-116 was > 100 µM (inactive) in each case. The GI50 is above 100 µM in the test with HCT-15; > 100 µM (inactive) with HT-29; > 100 µM (inactive) in the test with Hs-578T; > 100 µM (inactive) in the test with K562; > 100 µM (inactive) in the test on LOX IMVI; > 100 µM (inactive) in the test on MCF7. Besides, the GI50 in the test on NCI-H522 was 50.6 µM (inactive); with NCI/ADR-RES, 66.2 µM (inactive); in the test on RPMI-8226, > 100 µM (inactive); in the test with SK-MEL-28 it was > 100 µM (inactive); in the test with SNB-19, > 100 µM (inactive); with SR, > 100 µM (inactive). In addition, the GI50 with SW-620 and in the test on U-251 was > 100 µM (inactive) in each case.
Regarding `COc1cc2c(c(OC)c1OC)C(=O)[C@@H]1[C@H]2N1C(=O)NCCCl`, the GI50 in the test with 786-0 is > 100 µM (inactive); with A549 it was 58.2 µM (inactive); in the test with ACHN, 50.5 µM (inactive); in the test on BT-549 it was 80.5 µM (inactive); in the test on DU-145 it was 66.8 µM (inactive); in the test on HCT-116, 41.7 µM (inactive). The GI50 is 36.1 µM in the test with HCT-15; 36 µM (inactive) in the test on HT-29; 61.2 µM (inactive) in the test with Hs-578T; 45.8 µM (inactive) in the test with K562; 39.3 µM (inactive) with LOX IMVI; 27.6 µM (inactive) in the test on MCF7. The GI50 with NCI-H522 is 49.2 µM (inactive); in the test with NCI/ADR-RES, > 100 µM (inactive); in the test on RPMI-8226, 70 µM (inactive); in the test with SK-MEL-28 it was > 100 µM (inactive); in the test with SNB-19 it was > 100 µM (inactive); in the test with SR, 46.2 µM (inactive). The GI50 with SW-620 is > 100 µM (inactive); in the test with U-251, 37.1 µM (inactive).
As for `c1cnn(C23C4C5C6C4C2C6C53)c1` (stereo not given), the GI50 is > 100 µM (inactive) in the test on 786-0; > 100 µM (inactive) in the test on A549; > 100 µM (inactive) with ACHN; 71.6 µM (inactive) in the test on BT-549; > 100 µM (inactive) with DU-145; > 100 µM (inactive) in the test with HCT-116. Moreover, the GI50 with HCT-15 is above 100 µM; in the test on HT-29, > 100 µM (inactive); in the test with Hs-578T, > 100 µM (inactive); in the test with K562 it was > 100 µM (inactive); in the test with LOX IMVI it was > 100 µM (inactive); in the test on MCF7, > 100 µM (inactive). Further, the GI50 in the test with NCI-H522, with NCI/ADR-RES, with RPMI-8226, in the test on SK-MEL-28, with SNB-19 and in the test with SR was > 100 µM (inactive) throughout. The GI50 with SW-620 and with U-251 was > 100 µM (inactive) each time.
Take `O=C1C(c2c(O)[nH]c3ccc(S(=O)(=O)O)cc23)=Nc2ccccc21`: the GI50 in the test on 786-0, in the test with A549, with ACHN, in the test with BT-549, in the test with DU-145 and with HCT-116 was > 100 µM (inactive) in each case. The GI50 was above 100 µM in the test on HCT-15; > 100 µM (inactive) in the test with HT-29; > 100 µM (inactive) in the test on Hs-578T; > 100 µM (inactive) in the test on K562; > 100 µM (inactive) with LOX IMVI; 53.5 µM (inactive) in the test on MCF7. Further, the GI50 with NCI-H522, in the test on NCI/ADR-RES, in the test on RPMI-8226, with SK-MEL-28, in the test on SNB-19 and in the test with SR was > 100 µM (inactive) each time. Besides, the GI50 in the test with SW-620 and in the test on U-251 was > 100 µM (inactive) in each case.
Consider `CCOC(=O)c1c(N2CCOCC2)[nH]c(=O)c(C(c2c(O)c(C(=O)OCC)c(N3CCOCC3)[nH]c2=O)C(C)C)c1O`, for which the GI50 was 60.1 µM (inactive) in the test on 786-0; > 100 µM (inactive) in the test on A549; > 100 µM (inactive) in the test on ACHN; > 100 µM (inactive) in the test with BT-549; > 100 µM (inactive) in the test with DU-145; > 100 µM (inactive) with HCT-116. The GI50 in the test on HCT-15 was above 100 µM; in the test on HT-29, > 100 µM (inactive); in the test on Hs-578T it was 47.9 µM (inactive); in the test on K562, > 100 µM (inactive); in the test on LOX IMVI, > 100 µM (inactive); with MCF7, > 100 µM (inactive). The GI50 was > 100 µM (inactive) in the test with NCI-H522; > 100 µM (inactive) with NCI/ADR-RES; > 100 µM (inactive) in the test with RPMI-8226; > 100 µM (inactive) in the test with SK-MEL-28; 83.6 µM (inactive) in the test with SNB-19; > 100 µM (inactive) in the test with SR. Besides, the GI50 in the test with SW-620 and with U-251 was > 100 µM (inactive) in each case.
For `COc1ccc(C(c2ccc3c(c2)OCO3)N2C(=O)CCC2C(=O)O)cc1` (stereo not given), the GI50 in the test on 786-0, with A549, in the test on ACHN, with BT-549, in the test with DU-145 and in the test on HCT-116 was > 100 µM (inactive) throughout. In addition, the GI50 in the test on HCT-15 is above 100 µM; in the test with HT-29, > 100 µM (inactive); in the test on Hs-578T, > 10 µM (inactive); in the test with K562, > 100 µM (inactive); in the test with LOX IMVI it was > 100 µM (inactive); with MCF7 it was > 100 µM (inactive). In addition, the GI50 in the test on NCI-H522, in the test with NCI/ADR-RES, in the test with RPMI-8226, in the test with SK-MEL-28, in the test on SNB-19 and in the test with SR was > 100 µM (inactive) throughout. For the same compound, the GI50 in the test on SW-620 and in the test with U-251 was > 100 µM (inactive) in each case.
Consider `CNc1cc2oc(=O)cc(C)c2cc1C`, for which the GI50 was > 100 µM (inactive) in the test on 786-0; > 100 µM (inactive) with A549; > 100 µM (inactive) in the test on ACHN; 15.4 µM (inactive) in the test with BT-549; > 100 µM (inactive) in the test on DU-145; > 100 µM (inactive) with HCT-116. Further, the GI50 is above 100 µM in the test on HCT-15; > 100 µM (inactive) in the test on HT-29; 79.1 µM (inactive) in the test on Hs-578T; > 100 µM (inactive) with K562; > 100 µM (inactive) in the test on LOX IMVI; 96.8 µM (inactive) in the test with MCF7. Besides, the GI50 is > 100 µM (inactive) in the test with NCI-H522; > 100 µM (inactive) in the test on NCI/ADR-RES; > 100 µM (inactive) with RPMI-8226; > 100 µM (inactive) in the test with SK-MEL-28; > 100 µM (inactive) with SNB-19; 36.4 µM (inactive) with SR. In addition, the GI50 with SW-620 and with U-251 was > 100 µM (inactive) in each case.
With `[O-][n+]1ccccc1Sc1nc(Sc2cccc[n+]2[O-])nc(Sc2cccc[n+]2[O-])n1`, the GI50 is 1.27 µM (inactive) in the test with 786-0; 2.99 µM (inactive) with A549; 1.54 µM (inactive) in the test on ACHN; 1.61 µM (inactive) in the test with BT-549; 3.27 µM (inactive) in the test with DU-145; 1.25 µM (inactive) in the test on HCT-116. Moreover, the GI50 with HCT-15 was 1.38 µM; in the test with HT-29, 1.19 µM (inactive); in the test on Hs-578T it was 2.08 µM (inactive); with K562, 0.279 µM (active); with LOX IMVI, 0.92 µM (active); in the test on MCF7, 0.778 µM (active). Also, the GI50 was 0.745 µM (active) in the test on NCI-H522; 2.92 µM (inactive) in the test with NCI/ADR-RES; 0.385 µM (active) with RPMI-8226; 0.697 µM (active) in the test on SK-MEL-28; 13 µM (inactive) with SNB-19; 0.171 µM (active) with SR. Moreover, the GI50 is 0.248 µM (active) in the test with SW-620 and 1.69 µM (inactive) in the test with U-251.
Take `O=C1CSC(c2ccccc2O)N1c1nc2cc3sc(N4C(=O)CSC4c4ccccc4O)nc3cc2s1` (stereo not given): the GI50 with 786-0 is > 100 µM (inactive); with A549, 3.85 µM (inactive); in the test with ACHN, > 44.6 µM (inactive); in the test on BT-549, 11.9 µM (inactive); in the test on DU-145 it was 34.7 µM (inactive); with HCT-116 it was 20.7 µM (inactive). Further, the GI50 in the test on HCT-15 is 7.05 µM; in the test with HT-29 it was 20 µM (inactive); with Hs-578T, > 58.9 µM (inactive); in the test on K562, 64.3 µM (inactive); in the test on LOX IMVI, 24 µM (inactive); in the test with MCF7, 11.5 µM (inactive). Further, the GI50 in the test with NCI-H522 was 7.06 µM (inactive); in the test on NCI/ADR-RES it was 8.47 µM (inactive); with RPMI-8226, 32.1 µM (inactive); in the test with SK-MEL-28, > 79.1 µM (inactive); with SNB-19, 42 µM (inactive); in the test on SR it was 7.71 µM (inactive). In addition, the GI50 was 22.4 µM (inactive) in the test on SW-620 and 36.3 µM (inactive) with U-251.
On to `CCNc1ccc2c(c1)Cc1ccccc1-2`, for which the GI50 in the test with 786-0 was > 100 µM (inactive); in the test with A549, 73.5 µM (inactive); in the test on ACHN, 77.4 µM (inactive); in the test with BT-549, 34.5 µM (inactive); in the test with DU-145, 59.8 µM (inactive); in the test with HCT-116, > 100 µM (inactive). For the same compound, the GI50 in the test on HCT-15 is 7.38 µM; in the test with HT-29, 50.5 µM (inactive); in the test on Hs-578T, 65.2 µM (inactive); with K562 it was 27.6 µM (inactive); in the test on LOX IMVI it was 32.3 µM (inactive); in the test on MCF7 it was 23.7 µM (inactive). The GI50 in the test with NCI-H522 was 32.7 µM (inactive); in the test with NCI/ADR-RES, > 100 µM (inactive); with RPMI-8226, 47.3 µM (inactive); in the test on SK-MEL-28, > 100 µM (inactive); with SNB-19 it was 48.1 µM (inactive); with SR, 14.5 µM (inactive). The GI50 was 83.6 µM (inactive) with SW-620 and 44.3 µM (inactive) with U-251.
